Each structure is given as a SMILES string.

In one experiment the target is Rhesus PDE2A3 (Macaca mulatta, UniProt B3VTJ2). Kind of experiment: PDE2 fluorescence polarization (IMAP FP) assay, rhesus PDE2A3. Particulars: Lab A, read-out: Rhesus PDE2 Ki (nM) Lab A. Format: biochemical, rhesus macaque. As for the experimental part: A Labcyte Echo 555 (Labcyte, Sunnyvale, Calif.) is used to dispense 200 nL from each well of the titration plate to the 384 well assay plate. Ten microliters of a solution of enzyme (1/2000 final dilution from aliquots; sufficient to produce 20% substrate conversion) was added to the assay plate. Next 10 uL of a separate solution of the substrate FAM-labeled cAMP (50 nM final concentration product # R7506 from Molecular Devices) and the activator cGMP (1 uM final concentration), prepared in the assay buffer (10 mM Tris HCl, pH 7.2, 10 mM MgCl2, 0.05% NaN3 0.01% Tween-20, and 1 mM DTT) was added to the assay plate and shaken to mix. The reaction is allowed to proceed at room temperature for 60 minutes. A binding solution is then made from the kit components, comprised of 80% Solution A, 20% Solution B and binding reagent at a volume of 1/600 the total binding solution. The enzymatic reaction is stopped by addition of 60 μL of the binding solution to each well of the assay plates and the plates are sealed and shaken for 30 seconds. The plate was incubated at room temperature for at least one hour prior to determining the fluorescence polarization (FP). The parallel and perpendicular fluorescence of each well of the plate was measured using a Tecan Genios Pro plate reader (Tecan, Switzerland) or Perkin Elmer EnVision™ plate reader (Waltham, Mass.). Fluorescence polarization (mP) was calculated from the parallel (S) and perpendicular (P) fluorescence of each sample well and the analogous values for the median control well, containing only substrate (So and Po), using the following equation: Polarization (mP)=1000*(S/So−P/Po)/(S/So+P/Po).
Chain of Rhesus PDE2A3 (B3VTJ2 1-941): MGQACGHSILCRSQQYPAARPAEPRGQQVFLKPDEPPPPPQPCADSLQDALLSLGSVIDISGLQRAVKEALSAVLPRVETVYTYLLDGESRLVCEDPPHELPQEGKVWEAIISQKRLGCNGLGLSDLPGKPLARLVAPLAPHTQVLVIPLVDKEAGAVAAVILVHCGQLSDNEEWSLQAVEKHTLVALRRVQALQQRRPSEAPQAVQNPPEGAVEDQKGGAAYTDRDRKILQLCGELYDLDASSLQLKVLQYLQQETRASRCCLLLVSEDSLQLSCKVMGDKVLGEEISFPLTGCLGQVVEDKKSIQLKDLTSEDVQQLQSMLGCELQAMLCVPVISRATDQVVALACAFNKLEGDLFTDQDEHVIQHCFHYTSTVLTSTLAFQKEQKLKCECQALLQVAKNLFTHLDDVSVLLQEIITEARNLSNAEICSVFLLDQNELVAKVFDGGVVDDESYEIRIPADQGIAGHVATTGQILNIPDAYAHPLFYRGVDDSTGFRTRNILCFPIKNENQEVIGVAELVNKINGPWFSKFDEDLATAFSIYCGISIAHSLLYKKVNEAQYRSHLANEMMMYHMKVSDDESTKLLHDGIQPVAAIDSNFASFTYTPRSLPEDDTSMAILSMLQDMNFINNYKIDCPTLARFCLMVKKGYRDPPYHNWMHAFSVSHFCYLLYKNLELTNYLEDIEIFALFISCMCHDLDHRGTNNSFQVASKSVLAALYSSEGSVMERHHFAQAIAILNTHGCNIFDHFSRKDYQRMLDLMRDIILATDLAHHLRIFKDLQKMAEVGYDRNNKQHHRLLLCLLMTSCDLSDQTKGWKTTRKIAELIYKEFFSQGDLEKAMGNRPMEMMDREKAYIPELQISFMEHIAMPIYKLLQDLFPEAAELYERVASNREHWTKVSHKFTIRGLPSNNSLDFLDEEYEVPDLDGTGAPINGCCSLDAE
Dose-inhibition profiles for each compound were characterized by fitting the mP data to a four-parameter equation given below.
An apparent (KM) for FAM-labeled cAMP of ˜10 uM was used.
Consider `CC(c1ccc(OC(F)(F)F)c(F)c1)n1nc(CO)c2c(=O)[nH]c(O)nc21` (single isomer, unassigned) [Example 10], for which the Ki is 145 nM.

`CC(c1ccc(OC(F)(F)F)c(F)c1)n1nc(CO)c2c(=O)[nH]c(O)nc21` (single isomer, unassigned) [Example 11]: the inhibition constant Ki came to 14 nM.

Take `CC(c1ccc(C(F)(F)F)cc1)n1nc(CO)c2c(=O)[nH]c(O)nc21` (single isomer, unassigned) [Example 18, (R)- or (S)-6-Hydroxy-3-(hydroxymethyl)-1-{1-[4-(trinuoromethyl)phenyl]ethyl}-1,5-dihydro-4H-pyrazolo[3,4-d]pyrimidin-4-one]: the Ki was more than 1000 nM.

As for `CC(c1ccc(S(F)(F)(F)(F)F)cc1)n1nc(CO)c2c(=O)[nH]c(O)nc21` (single isomer, unassigned) [Example 20, (R)- or (S)-6-Hydroxy-3-(hydroxymethyl)-1-{1-[4-(pentafluorosulfanyl)phenyl]ethyl}-1,5-dihydro-4H-pyrazolo[3,4-d]pyrimidin-4-one], the Ki is approximately 684 nM.

Still in this experiment, the particulars now being: Lab B, read-out: Rhesus PDE2 Ki (nM) Lab B.
As for `C[C@H](c1ccc(C(F)(F)F)c(F)c1)n1nc(CF)c2c(=O)[nH]c(O)nc21` (mixture of isomers) [Example 35, (R)- and (S)-1-(1-(3-Fluoro-4-(trifluoromethyl)phenyl)ethyl)-3-(fluoromethyl)-6-hydroxy-H-pyrazolo[3,4-d]pyrimidin-4(5H)-one], the Ki was determined as 209 nM.

As to `CC(c1ccc(C(F)(F)F)c(F)c1)n1nc(CO)c2c(=O)[nH]c(O)nc21` (single isomer, unassigned) [Example 2], the Ki is 364 nM.

`CC(c1ccc(OC(F)(F)F)c(F)c1)n1nc(CO)c2c(=O)[nH]c(O)nc21` (single isomer, unassigned) [Example 10]: the Ki turned out to be 249 nM.

As to `CC(c1ccc(OC(F)(F)F)c(F)c1)n1nc(CO)c2c(=O)[nH]c(O)nc21` (single isomer, unassigned) [Example 11], the Ki came out at 34 nM.

For `CC(C)C(c1ccc(C(F)(F)F)cc1)n1nc(CO)c2c(=O)[nH]c(O)nc21` (single isomer, unassigned) [Example 12], the Ki was found to be 192 nM.

Regarding `O=c1[nH]c(O)nc2c1c(CO)nn2C(c1ccc(C(F)(F)F)cc1)C1CC1` (single isomer, unassigned) [Example 14], the Ki stood at 410 nM.

For `O=c1[nH]c(O)nc2c1c(CO)nn2C(c1ccc(C(F)(F)F)cc1)C1CC1` (single isomer, unassigned) [Example 15, (S) or (R)-1-(Cyclopropyl(4-(trifluoromethyl)phenyl)methyl)-6-hydroxy-3-(hydroxymethyl)-1H-pyrazolo[3,4-d]pyrimidin-4(5H)-one], the inhibition constant (Ki) is 17 nM.

On to `O=c1[nH]c(O)nc2c1c(CO)nn2C(CC(F)(F)F)c1ccc(C(F)(F)F)cc1` (single isomer, unassigned) [Example 22], for which the Ki was 253 nM.

As for `O=c1[nH]c(O)nc2c1c(CO)nn2C(CC(F)(F)F)c1ccc(C(F)(F)F)cc1` (single isomer, unassigned) [Example 23], the Ki was approximately 2700 nM.

Consider `CC(C)(C)C(c1ccc(C(F)(F)F)c(F)c1)n1nc(CO)c2c(=O)[nH]c(O)nc21` (single isomer, unassigned) [Example 24], for which the Ki was approximately 2270 nM.

As to `CC(C)(C)C(c1ccc(C(F)(F)F)c(F)c1)n1nc(CO)c2c(=O)[nH]c(O)nc21` (single isomer, unassigned) [Example 25], the Ki came out at 238 nM.

In the case of `CC(C)C(c1ccc(C(F)(F)F)c(F)c1)n1nc(CO)c2c(=O)[nH]c(O)nc21` (single isomer, unassigned) [Example 28, (S)- or (R)-1-(1-(3-F1uoro-4-(trifluoromethyl)phenyl)-2-methylpropyl)-6-hydroxy-3-(hydroxymethyl)-1H-pyrazolo[3,4-d]pyrimidin-4(5H)-one], the Ki was 117 nM.

In the case of `CC(C)(C)C(c1ccc(C(F)(F)F)cc1)n1nc(CO)c2c(=O)[nH]c(O)nc21` (single isomer, unassigned) [Example 29, (R)- or (S)-1-(2,2-Dimethyl-1-(4-(trifluoromethyl)phenyl)propyl)-6-hydroxy-3-(hydroxymethyl)-1H-pyrazolo[3,4-d]pyrimidin-4(5H)-one], the Ki worked out at 220 nM.

`CC(C)(C)C(c1ccc(C(F)(F)F)cc1)n1nc(CO)c2c(=O)[nH]c(O)nc21` (single isomer, unassigned) [Example 30, (S)- or (R)-1-(2,2-Dimethyl-1-(4-(trifluoromethyl)phenyl)propyl)-6-hydroxy-3-(hydroxymethyl)-1H-pyrazolo[3,4-d]pyrimidin-4(5H)-one]: the Ki is 2040 nM.

`CC(C)(C)C(c1ccc(C(F)(F)F)cc1)n1nc(CF)c2c(=O)[nH]c(O)nc21` (single isomer, unassigned) [Example 51]: the inhibitory constant (Ki) was 123 nM.

With `CC(C)(C)C(c1ccc(C(F)(F)F)cc1)n1nc(CF)c2c(=O)[nH]c(O)nc21` (single isomer, unassigned) [Example 52], the Ki turned out to be 910 nM.

As to `CCC(c1ccc(CC(F)(F)F)c(F)c1)n1nc(CO)c2c(=O)[nH]c(N(C)C)nc21` (single isomer, unassigned) [Example 96, (R)- or (S)-6-(Dimethylamino)-1-(1-(3-fluoro-4-(2,2,2-trifluoroethyl)phenyl)propyl)-3-(hydroxymethyl)-1H-pyrazolo[3,4-d]pyrimidin-4(5H)-one], the Ki is 0.5 nM.

For `CCC(c1ccc(C(F)F)c(F)c1)n1nc(CO)c2c(=O)[nH]c(N(C)C)nc21` (single isomer, unassigned) [Example 147], the Ki was determined as 0.54 nM.

As for `CC(C)C(c1ccc(C(F)(F)F)c(F)c1)n1nc(CF)c2c(=O)[nH]c(N(C)C)nc21` (single isomer, unassigned) [Example 220, (R)- or (S)-6-(Dimethylamino)-1-(1-(3-fluoro-4-(trifluoromethyl)phenyl)-2-methylpropyl)-3-(fluoromethyl)-1H-pyrazolo[3,4-d]pyrimidin-4(5H)-one], the inhibition constant (Ki) stood at 0.5 nM.

On to `O=c1[nH]c(O)nc2c1c(CC(F)(F)F)nn2C(c1ccc(C(F)(F)F)cc1)C1CC1` (single isomer, unassigned) [Example 227], for which the inhibitory constant (Ki) is 12 nM.

For `O=c1[nH]c(O)nc2c1c(CC(F)(F)F)nn2C(c1ccc(C(F)(F)F)cc1)C1CC1` (single isomer, unassigned) [Example 228], the Ki is 210 nM.

As for `CC(C)C(c1ccc(OC(F)(F)F)cc1)n1nc(CC(F)(F)F)c2c(=O)[nH]c(O)nc21` (single isomer, unassigned) [Example 232, (R)- or (S)-6-Hydroxy-1-(2-methyl-1-(4-(trifluoromethoxy)phenyl)propyl)-3-(2,2,2-trifluoroethyl)-1H-pyrazolo[3,4-d]pyrimidin-4(5H)-one], the Ki is 192 nM.

As to `CC(C)C(c1ccc(OC(F)(F)F)cc1)n1nc(CC(F)(F)F)c2c(=O)[nH]c(O)nc21` (single isomer, unassigned) [Example 233, (S)- or (R)-6-Hydroxy-1-(2-methyl-1-(4-(trifluoromethoxy)phenyl)propyl)-3-(2,2,2-trifluoroethyl)-1H-pyrazolo[3,4-d]pyrimidin-4(5H)-one], the Ki is 132 nM.

For the compound `CC(c1ccc(C(F)(F)F)c(F)c1)n1nc(CC(F)(F)F)c2c(=O)[nH]c(O)nc21` (single isomer, unassigned) [Example 234, (R)- or (S)-1-(1-(3-Fluoro-4-(trifluoromethyl)phenyl)ethyl)-6-hydroxy-3-(2,2,2-trifluoroethyl)-1H-pyrazolo[3,4-d]pyrimidin-4(5H)-one], the Ki worked out at 180 nM.

For another experiment, the target named is human PDE2A1 (Homo sapiens (Human), UniProt O00408). The experiment is described as follows: PDE selectivity IMAP FP assay, human PDE2A1. Particulars: Human PDE2; Lab B; read-out: Human PDE2 Ki (nM) Lab B. In kind it is biochemical. In a few lines: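 Compound titrations run against PDE2 in Tris HCl pH 7.2 buffer with MgCl2 and DTT for 60 min at room temperature, using 50 nM FAM-cAMP plus 1000 nM cGMP and enzyme giving 20% conversion.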
Chain of human PDE2A1 (O00408 other isoform, or with tags, fused parts or gaps): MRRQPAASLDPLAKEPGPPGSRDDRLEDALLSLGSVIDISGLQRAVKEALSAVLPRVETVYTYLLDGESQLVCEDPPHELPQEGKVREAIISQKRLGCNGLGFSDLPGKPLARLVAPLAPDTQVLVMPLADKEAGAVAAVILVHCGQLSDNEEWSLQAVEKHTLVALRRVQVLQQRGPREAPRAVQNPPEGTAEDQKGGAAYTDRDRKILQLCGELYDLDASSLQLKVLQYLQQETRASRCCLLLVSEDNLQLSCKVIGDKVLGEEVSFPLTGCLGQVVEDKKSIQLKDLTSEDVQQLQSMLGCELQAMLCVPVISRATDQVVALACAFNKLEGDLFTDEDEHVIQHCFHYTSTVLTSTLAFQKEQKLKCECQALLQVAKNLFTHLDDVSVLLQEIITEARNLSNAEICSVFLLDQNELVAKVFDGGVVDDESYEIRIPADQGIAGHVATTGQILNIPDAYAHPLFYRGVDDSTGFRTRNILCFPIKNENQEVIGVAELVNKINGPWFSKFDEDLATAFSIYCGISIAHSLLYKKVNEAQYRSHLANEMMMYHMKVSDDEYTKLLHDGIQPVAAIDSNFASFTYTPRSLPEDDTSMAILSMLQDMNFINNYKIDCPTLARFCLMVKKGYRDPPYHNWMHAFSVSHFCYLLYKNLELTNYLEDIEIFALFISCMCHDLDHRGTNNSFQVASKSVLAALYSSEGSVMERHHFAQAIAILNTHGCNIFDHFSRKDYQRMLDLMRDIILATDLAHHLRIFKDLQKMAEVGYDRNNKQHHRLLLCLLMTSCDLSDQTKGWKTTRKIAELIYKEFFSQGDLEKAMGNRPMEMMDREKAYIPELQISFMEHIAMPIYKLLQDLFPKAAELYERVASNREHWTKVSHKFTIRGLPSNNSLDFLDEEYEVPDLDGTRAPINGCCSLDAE
With `O=c1[nH]c(O)nc2c1c(C(F)(F)F)nn2C1(c2ccc(C(F)(F)F)cc2)CC1` [Example 354, 6-Hydroxy-3-(trifluoromethyl)-1-(1-(4-(trifluoromethyl)phenyl)cyclopropyl)-1H-pyrazolo[3,4-d]pyrimidin-4(5H)-one], the Ki came out at 2.4 nM.

With `C=CC(c1ccc(C(F)(F)F)cc1)n1nc(C(F)(F)F)c2c(=O)[nH]c(O)nc21` (centres unmarked) [Example 355, 6-Hydroxy-3-(trifluoromethyl)-1-(1-(4-(trifluoromethyl)phenyl)allyl)-1H-pyrazolo[3,4-d]pyrimidin-4(5H)-one], the Ki is 284 nM.

For the compound `C[C@@H](c1ccc(C(F)(F)F)cc1)n1nc(C(F)F)c2c(=O)[nH]c(N3CCC3)nc21` [compound 290, 6-Azetidin-1-yl-3-(difluoromethyl)-1-{(1S)-1-[4-(trifluoromethyl)phenyl]ethyl}-1,5-dihydro-4H-pyrazolo[3,4-d]pyrimidin-4-one], the inhibitory constant (Ki) turned out to be 0.26 nM.

On to `CCOc1nc2c(c(CO)nn2[C@@H](C)c2ccc(C(F)(F)F)cc2)c(=O)[nH]1` [compound 302, 6-Ethoxy-3-(hydroxymethyl)-1-{(1S)-1-[4-(trifluoromethyl)phenyl]ethyl}-1,5-dihydro-4H-pyrazolo[3,4-d]pyrimidin-4-one], for which the Ki is 3.7 nM.

The record behind these values is patent publication US10174037B2, “Dihydropyrazolopyrimidinone compounds as PDE2 inhibitors” (Merck Sharp & Dohme Corp., priority 2015, dated 2019).
